Test results reported in article PMC6495113, “Sesquiterpenoids and 2-(2-phenylethyl)chromones respectively acting as α-glucosidase and tyrosinase inhibitors from agarwood of an Aquilaria plant” (Journal of Enzyme Inhibition and Medicinal Chemistry, 2019).

Assays:
α-glucosidase [1] = target: T1, α-glucosidase (Saccharomyces cerevisiae, UniProt P53341); assay: α-Glucosidase inhibitory assay (p-NPG substrate); conditions: for inhibition at 750 µM: read-out: α-glucosidase inhibitory activity 750 μM (%)
T1 sequence (P53341 whole entry): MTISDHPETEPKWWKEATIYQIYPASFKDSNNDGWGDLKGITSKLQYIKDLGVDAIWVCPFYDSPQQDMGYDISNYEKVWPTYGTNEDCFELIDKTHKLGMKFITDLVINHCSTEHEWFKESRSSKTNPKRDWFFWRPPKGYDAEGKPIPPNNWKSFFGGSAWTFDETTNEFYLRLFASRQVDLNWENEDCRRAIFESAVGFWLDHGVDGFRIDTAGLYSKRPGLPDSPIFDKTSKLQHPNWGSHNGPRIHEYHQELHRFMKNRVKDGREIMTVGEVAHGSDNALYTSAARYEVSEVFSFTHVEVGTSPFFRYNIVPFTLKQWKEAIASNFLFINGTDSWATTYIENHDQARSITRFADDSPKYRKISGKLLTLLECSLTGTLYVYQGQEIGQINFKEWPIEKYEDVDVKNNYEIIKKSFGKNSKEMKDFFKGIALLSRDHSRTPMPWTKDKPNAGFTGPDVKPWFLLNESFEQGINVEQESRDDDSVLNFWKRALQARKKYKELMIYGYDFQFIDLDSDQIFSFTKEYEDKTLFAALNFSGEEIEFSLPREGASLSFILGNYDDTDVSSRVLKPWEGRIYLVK
Procedure: The α-glucosidase (G5003, Sigma-Aldrich) was obtained from Saccharomyces cerevisiae and the enzyme inhibitory assay was performed using formerly described method[24] with some modifications. […] The percentage inhibition was calculated using the following equation: % inhibition=[1–(ODcompound–ODblank)/(ODcontrol–ODblank)]×100

tyrosinase [2] = target: T2, tyrosinase (Agaricus bisporus, UniProt C7FF04); assay: Tyrosinase inhibitory assay (L-tyrosine substrate); conditions: read-out: tyrosinase inhibitory activity 100 μM (%)
T2 sequence (C7FF04 1-392): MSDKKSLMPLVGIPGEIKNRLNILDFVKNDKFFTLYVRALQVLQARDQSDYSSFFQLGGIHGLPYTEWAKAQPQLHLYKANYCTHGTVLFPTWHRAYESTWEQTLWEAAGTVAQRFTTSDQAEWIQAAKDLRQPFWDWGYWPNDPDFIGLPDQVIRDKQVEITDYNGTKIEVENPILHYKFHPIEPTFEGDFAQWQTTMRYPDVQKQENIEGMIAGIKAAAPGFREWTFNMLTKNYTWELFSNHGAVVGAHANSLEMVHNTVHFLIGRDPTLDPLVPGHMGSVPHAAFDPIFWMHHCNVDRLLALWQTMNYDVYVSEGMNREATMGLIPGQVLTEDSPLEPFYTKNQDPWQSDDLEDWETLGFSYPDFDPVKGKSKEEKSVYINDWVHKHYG
Procedure: After 5 min pre-incubation of the mixture at 37 °C, 50 µL of 2 mM L-tyrosine in buffer were added and incubated for additional 20 min at 37 °C. The control wells contained DMSO instead of compound, and the blank wells were added with buffer in place of L-tyrosine. […] The percentage inhibition was calculated using the formula as below: % inhibition=[1–(ODcompound–ODblank)/(ODcontrol–ODblank)]×100

α-glucosidase [3] = target: T1, α-glucosidase; assay: Kinetic analysis of α-glucosidase inhibition (Lineweaver-Burk, secondary plot); format: biochemical
Procedure: The α-glucosidase (G5003, Sigma-Aldrich) was obtained from Saccharomyces cerevisiae and the enzyme inhibitory assay was performed using formerly described method[24] with some modifications. […]. The OD values were measured at 405 nm with microplate reader. Acarbose was used as reference compound. The percentage inhibition was calculated using the following equation: % inhibition=[1–(ODcompound–ODblank)/(ODcontrol–ODblank)]×100
(§1) The data were expressed as double-reciprocal Lineweaver − Burk plot and the inhibition constants (KI and KIS) were obtained from secondary plots of slope and y intercept of lines from Lineweaver-Burk plot against inhibitor[25].

tyrosinase [4] = target: T2, tyrosinase; assay: Kinetic analysis of tyrosinase inhibition (Lineweaver-Burk, secondary re-plots); format: biochemical, mushroom
Procedure: . Briefly, 130 µL of tyrosinase (50 U/mL) solvated in 50 mM phosphate buffer (pH: 6.8) were mixed with 20 µL of 2-fold serial dilutions (from 1 mM to 0.03125 mM) of compounds in DMSO, and transferred into a 96-well plate. After 5 min pre-incubation of the mixture at 37 °C, 50 µL of 2 mM L-tyrosine in buffer were added and incubated for additional 20 min at 37 °C. The control wells contained DMSO instead of compound, and the blank wells were added with buffer in place of L-tyrosine. Kojic acid was used as a positive control. The absorbance was measured at 495 nm using microplate reader. The percentage inhibition was calculated using the formula as below: % inhibition=[1–(ODcompound–ODblank)/(ODcontrol–ODblank)]×100
as §1

inhibition at 750 µM (α-glucosidase [1]) | inhibition at 100 µM (tyrosinase [2]) | Structure (SMILES) | further results
37.4 ± 1.4% | < 30% | C=C1C2CCC3(C(CO)CCC3C1(C)C)C2O (centres unmarked) [Compound 1, Agarozizanol A] | –
42 ± 2.7% | < 30% | CC1CCC2C(C)(C)C(CO)C3(O)CCC12C3 (centres unmarked) [Compound 2, Agarozizanol B] | –
< 30% | < 30% | CC1CCC2C13CCC(C3O)C(C)(O)C2(C)C (centres unmarked) [Compound 3, Agarozizanol C] | –
49.9 ± 1.8% | < 30% | CC1CCC2C13CCC(C3)C(O)(CO)C2(C)C (centres unmarked) [Compound 4, Agarozizanol D] | –
93.4 ± 3.1% | < 30% | CC1=C2CCC(C)C23CCC(C3)C1(C)CO (centres unmarked) [Compound 5, Agarozizanol E] | type of inhibition of α-glucosidase (α-glucosidase [3]): uncompetitive inhibitors
< 30% | < 30% | CC1=C2C(O)CC(CO)C23CCC(C3)C1(C)C (centres unmarked) [Compound 6, Agarozizanol F] | –
86.9 ± 0.4% | < 30% | CC1CCC2C13CCC(C3)C(C)(O)C2(C)C (centres unmarked) [Compound 7, Jinkohol I] | –
77.3 ± 1% | < 30% | CC1CCC2C(C)(C)C(CO)C3CCC12C3 (centres unmarked) [Compound 8, Jinkohol II] | –
48.9 ± 1.1% | < 30% | CC1CCC2C(C)(C)C(C(=O)O)C3CCC12C3 (centres unmarked) [Compound 9, Jinkoholic acid] | –
92.1 ± 3.4% | < 30% | CC1=C2CCC(CO)C23CCC(C3)C1(C)C (centres unmarked) [Compound 10, isokhusenol] | –
< 30% | < 30% | COc1ccc(CCc2cc(=O)c3cc(OC)c(O)cc3o2)cc1O [Compound 12, 6-methoxy-7-hydroxy-2-[2-(3-hydroxy-4-methoxyphenyl)ethyl]chromone] | –
< 30% | 53.4 ± 0.7% | COc1ccc(CCc2cc(=O)c3cc(O)c(OC)cc3o2)cc1O [Compound 13, 6-hydroxy-7-methoxy-2-[2-(3-hydroxy-4-methoxyphenyl)ethyl]chromone] | –
< 30% | 65 ± 1.8% | COc1ccc(CCc2cc(=O)c3cc(O)cc(O)c3o2)cc1 [Compound 14, 6,8-dihydroxy-2-[2-(4-methoxyphenyl)ethyl]chromone] | type of inhibition of tyrosinase (tyrosinase [4]; Lineweaver-Burk plot): mixed type inhibitors; inhibition constant KIS, binding with enzyme-substrate complex (tyrosinase) (tyrosinase [4]; secondary re-plot of y intercept vs. inhibitor): 72.8 µM
< 30% | 34.8 ± 1.4% | O=c1cc(CCc2ccccc2)oc2c1C(O)C(O)C(O)C2Cl (centres unmarked) [Compound 15, 8-chloro-2–(2-phenylethyl)-5,6,7-trihydroxy-5,6,7,8-tetrahydrochromone] | –
< 30% | < 30% | COc1ccc(CCc2cc(=O)c3c(o2)C(Cl)C(O)C(O)C3O)cc1 (centres unmarked) [Compound 16, 8-chloro-2–(2-(4-methoxyphenyl)ethyl)-5,6,7-trihydroxy-5,6,7,8-tetrahydrochromone] | –
– | – | C[C@H]1O[C@H](O[C@H]2[C@H](O)[C@@H](O)[C@@H](O[C@H]3[C@H](O)[C@@H](O)C(O)O[C@@H]3CO)O[C@@H]2CO)[C@H](O)[C@@H](O)[C@@H]1N[C@H]1C=C(CO)[C@@H](O)[C@H](O)[C@H]1O (some centres unmarked) [acarbose, reference compound] | α-glucosidase inhibitory activity 750 μM (%) (α-glucosidase [1]; 750 μM, means ± SD, three individual experiments): 50.7 ± 1.2%; α-glucosidase inhibition rate (α-glucosidase [1]; concentration of 50 µg/mL): 62.06 ± 4.77%
